Measured values: patent publication US11518785B2, “Peptide showing melanogenesis promoting activity and use thereof” (CAREGEN CO., LTD., priority 2017, dated 2022)
Where “and” joins values, the source holds several entries; their conditions need not be identical. Equal entries are not always repeated.

Key:
Assay type in all cases: cell-based, mouse
[1] = system: tyrosinase in melanoma cell line (B16F10) cells; assay: Tyrosinase activity assay in lysates of treated cells (L-DOPA); details: for Tyrosinase activity (%): B16F10, 72 hours, control group = 100; for tyrosinase activity: mouse melanin cell line B16F10 treated with the peptide, result in words
Experimental: Melanoma cell line (B16F10) cells were cultured in 6-well culture plates for 24 hours, and treated with the peptide with different concentrations, followed by culture for 72 hours. The 6-well culture plates were loaded on ice and washed with cool PBS, and then 300 μl of 0.1 M sodium phosphate buffer (pH 6.8, lysis buffer) containing 1% Triton X-100 was added. The cells were collected in 1.5-ml tubes, and then cell membranes were disrupted by repeating five times rapid-freezing at […] and thawing. After centrifugation at 15,000 rpm for 10 minutes, the supernatant was collected in other 1.5-mL tubes, and the protein of the samples was quantified. The samples were diluted to have the same protein concentration and then dispensed in every three wells in 96-well culture plates, and then 20 μl of 10 mM L-DOPA was added, followed by incubation at 37° C. for 1 hour The blank and positive control were as shown in Table 5.
Then, the absorbance was measured at 475 nm, and the results are shown in FIGS. 2, 7, and 12, and Tables 6 to 8.

[2] = system: melanocytes (B16F10 cell line); assay: Melanogenesis assay (melanin content); details: for Melanin content (%): B16F10, 72 hours, control group = 100; for melanogenesis: mouse melanin cell line B16F10 treated with the peptide, result in words
Experimental: After seeding melanocytes (B16F10 cell line) in 6-well plates at the density of 5×10^4 cells/well, the melanocytes were cultured in an incubator at a temperature of 37° C. for 24 hours, and the medium of each plate was removed and replaced with 2% serum-containing media, followed by treatment with the present peptide at different concentrations and then incubation of 72 hours.
Then, the culture medium was removed, and the cells were taken off and then transferred into 1.5-ml tubes, followed by centrifugation at 13,000 rpm for 3 minutes to remove the supernatant. Next, cell pellets were collected to observe melanin. 150 μl of 1 N NaOH was added to the cell pellets to lyse intracellular melanin at a temperature of 60° C. for 30 minutes.

[3] = system: CREB phosphorylation in B16F10 cell line; assay: Melanogenesis-related protein activity assay (CREB phosphorylation, western blotting); details: B16F10 treated with the peptide, 48-hour incubation, result in words
Experimental: Melanocytes (B16F10 cell line) were seeded on 6-well culture plates at the density of 5×10^4 cells/well and incubated in an incubator for 24 hours, and the cells were treated with the peptides of the present invention with different concentrations. After 48-hour incubation, the cells were lysed, and the cells were subjected to western blotting using specific antibodies (Cell Signaling Technology, USA) to investigate the phosphorylation level of CREB, which is a signaling substance involved in melanogenesis.

[4] = system: TRP1 mRNA in B16F10 cell line; assay: RT-PCR of melanogenesis-related genes: TRP1; details: B16F10 treated with the peptide, 72 hours, result in words
Experimental: (§1) Melanocytes (B16F10 cell line) were seeded on 6-well culture plates at the density of 5×10^4 cells/well and incubated in an incubator for 24 hours. Then, the medium was replaced with […], and the cells were treated with the peptides of the present invention with different concentrations and cultured for 72 hours. Next, after RNA extraction of cells and quantification, cDNA was synthesized by using the cDNA synthesis kit (Intron, Korea). […] Then, degrees of mRNA expression of the growth factors under each sample treatment conditions were compared by running the resultants on a 5% agarose gel, and the results are shown in FIGS. 3, 8, and 13.

[5] = system: MITF mRNA in B16F10 cell line; assay: RT-PCR of melanogenesis-related genes: MITF; details: B16F10 treated with the peptide, 72 hours, result in words
Experimental: as §1

[6] = system: tyrosinase mRNA in B16F10 cell line; assay: RT-PCR of melanogenesis-related genes: tyrosinase; details: B16F10 treated with the peptide, 72 hours, result in words
Experimental: as §1

[7] = system: MITF and tyrosinase protein in B16F10 cell line; assay: Western blotting of melanogenesis-related proteins; details: B16F10 treated with the peptide, 72-hour incubation, result in words
Experimental: Melanocytes (B16F10 cell line) were seeded on 6-well culture plates at the density of 5×10^4 cells/well and incubated in an incubator for 24 hours, and the cells were treated with the peptides of the present invention with different concentrations. After 72-hour incubation, the cells were lysed, and the cells were subjected to western blotting using antibodies (antacruz biotechnology, USA) each specific to MITF and tyrosinase, which are the factors involved in melanogenesis.

| Substance | Tyrosinase activity (%) ([1]; 10 μM peptide) | Tyrosinase activity (%) ([1]; 50 μM peptide) | tyrosinase activity [1] | Melanin content (%) ([2]; 10 μM peptide) | Melanin content (%) ([2]; 50 μM peptide) | melanogenesis [2] | phosphorylation level of CREB [3] | mRNA expression of TRP1 [4] | mRNA expression of MITF [5] | mRNA expression of tyrosinase [6] | protein expression involved in the process of melanogenesis (MITF, tyrosinase) [7] | Tyrosinase activity (%) ([1]; 200 nM a-MSH) |
| --- | --- | --- | --- | --- | --- | --- | --- | --- | --- | --- | --- | --- |
| FCLGPCPYIWSL [SEQ ID NO: 1] | 157 | 201 | increased | 125 | 264 | increased | increased | increased | increased | increased | increased |  |
| KVTAMRCFLL [SEQ ID NO: 2] | 144 | 189 | increased | 109 | 155 | increased | increased | increased | increased | increased | increased |  |
| α-melanocyte stimulating hormone [a-MSH, reference compound] |  |  |  |  |  |  |  |  |  |  |  | 467% and 484% |
| RVTAMRCFLL [SEQ ID NO: 3] | 114 | 173 | increased | 106 | 164 | increased | increased | increased | increased | increased | increased |  |
